Experimental data from PubChem BioAssay (NCI).
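Where inhibition never reached the appropriate level, the endpoint shown equals the highest concentration tested. Otherwise, values were interpolated linearly from a five-concentration, 48-hour dose response in 96-well plates. Definition used: TGI = concentration required for complete inhibition of growth.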

Tests used:
Assay in all cases: inhibition of tumour cell growth, NCI panel, 48 h
NCI-H23 lung = test system: NCI-H23 lung
A498 renal = test system: A498 renal
NCI/ADR-RES ovarian = test system: NCI/ADR-RES ovarian
HT29 colon = test system: HT29 colon
CAKI-1 renal = test system: CAKI-1 renal
MDA-MB-231 breast = test system: MDA-MB-231 breast
HOP-62 NSCLC = test system: HOP-62 NSCLC
CCRF-CEM leukemia = test system: CCRF-CEM leukemia
MOLT-4 leukemia = test system: MOLT-4 leukemia
MDA-MB-435 = test system: MDA-MB-435
HCC-2998 colon = test system: HCC-2998 colon
OVCAR-4 ovarian = test system: OVCAR-4 ovarian
M14 melanoma = test system: M14 melanoma
UACC-257 melanoma = test system: UACC-257 melanoma
SR leukemia = test system: SR leukemia
HS 578T breast = test system: HS 578T breast
NCI-H226 lung = test system: NCI-H226 lung

Row | SMILES | TGI (NCI-H23 lung) [µM] | TGI (A498 renal) [µM] | TGI (NCI/ADR-RES ovarian) [µM] | TGI (HT29 colon) [µM] | TGI (CAKI-1 renal) [µM] | TGI (MDA-MB-231 breast) [µM] | TGI (HOP-62 NSCLC) [µM] | TGI (CCRF-CEM leukemia) [µM] | TGI (MOLT-4 leukemia) [µM] | TGI (MDA-MB-435) [µM] | TGI (HCC-2998 colon) [µM] | TGI (OVCAR-4 ovarian) [µM] | TGI (M14 melanoma) [µM] | TGI (UACC-257 melanoma) [µM] | TGI (SR leukemia) [µM] | TGI (HS 578T breast) [µM] | TGI (NCI-H226 lung) [µM]
1 | O=C(/C=C/c1ccc(O)c(O)c1)Oc1ccccc1 | 46.2 | > 100 | 43.5 | 48.8 | 32.5 | 61.8 | 49.2 | 42.8 | > 48.4 | > 74.2 | > 58.8 | > 100 | 55.2 | > 81.8 | 24.8 | 49 | > 100
2 | COc1cc(C(CN)N(C)C)cc(OC)c1OC (stereo unspecified) | > 100 | > 100 | > 100 | > 100 | > 100 | > 100 | > 100 | > 100 | > 100 | > 100 | > 100 | > 100 | > 100 | > 100 | > 100 | > 100 | 71.6
3 | Cc1nc(SCC(=O)Nc2ccccc2)c2sc(=S)n(-c3ccccc3)c2n1 | > 10 | > 10 | > 10 | > 10 | > 10 | > 10 | > 10 | > 10 | > 10 | > 10 | > 10 | > 10 | > 10 | > 10 | > 10 | > 10 | 8.99
